Reference: patent US20150219624A1, “METHODS FOR IDENTIFYING ANTI-CANCER COMPOUNDS” (MEMORIAL SLOAN KETTERING CANCER CENTER, priority 2013, published 2015)
pIC50: −log10 of the molar value.

How the values were obtained:
KOPTK1 cells = test: Transcriptome-scale ribosome footprinting (translational efficiency, rDiff ribosome distribution); assay type: cell-based, human; settings: for log2(Translational Efficiency): TE down genes with G-Quadruplex structure
Experimental: Ribosome Footprinting. KOPTK1 cells were treated with silvestrol or DMSO for 45 minutes, followed by cycloheximide treatment for 10 minutes and then harvested for total RNA and ribosome footprint fragment isolation. Total RNA was isolated using RNA isolation kit from Qiagen (74104) and subjected to RNA sequencing. Ribosome protected fragments were isolated following published protocol (Ingolia et al., 2009). Briefly cell lysates were subjected to ribosome footprinting by nuclease treatment. Footprint fragments were purified by one step sucrose cushion and gel extraction. Deep sequencing libraries were generated from these fragments. Both total RNA and footprint fragment libraries were analyzed by sequencing on the HiSeq 2000 platform.
Sequence Alignment. Sequences were aligned to the transcripts available from the human genome sequence hg19 from UCSC public database. Ribosome footprint (RF) reads were aligned to reference genome hg19 using PALMapper (Jean et al., 2010). Only the uniquely aligned reads were used for analysis. Read length of 25- to 35-bp was selected and used to analyze the translation effect of silvestrol. Total mRNA sequencing reads were aligned to the hg19 reference using STAR (Dobin et al., 2013). The splice alignment was used, and only used the uniquely aligned reads with maximum 3 mismatches.
Footprint Profile Analysis. The genome annotation was from GENCODE project (http://www.gencodegenes.org/releases/14.html). Ribosome footprint intensity (reads per million, RPM) and the expression value (reads per kilobase per million, RPKM) were measured from total mRNA-seq data and translation values were measured from ribosome footprint data. To evaluate the translation efficiency (TE) change between silvestrol- and vehicle-treated samples, TE was calculated as RPKMfootprint/RPKMmRNA (as Thoreen et al. did recently (Thoreen et al., 2012)). Changes in ribosome footprint profiles were determined by using DEXSeq algorithm (Anders et al., 2012). DEXSeq accounts for the discrete nature of the read counts and models biological variability to avoid false positives. Ratio of TEsilvestrol/TEcontrol of all the genes was plotted and color-highlighted according to the statistical significance of DEXSeq test.
Ribosome distribution analysis. The ribosomal distribution change was evaluated between silvestrol treated samples and controls. A BED file containing all non-overlapped exonic regions was generated based on genome annotation. Then the BED file and footprint BAM files were given as an input to SAMTOOLS (Li et al., 2009a) to generate new BAM files that only included exonic alignment. The exonic BAM files were input for two conditions to rDiff (Drewe et al., 2013) to identify genes that presented significant change in ribosomal distribution.
Sequence Alignment. The human genome sequence hg19 was downloaded from UCSC public database: http://hgdownload.cse.ucsc.edu/goldenPath/hg19/chromosomes. Ribosome footprint (RF) reads were aligned to reference genome hg19 using PALMapper (Jean et al., 2010). PALMapper clips the linker sequence (5′-[…]-3′), which is technically introduced during RF library construction, and trims the remaining sequence from the 3′ end while aligning the reads to reference sequence. Briefly, the parameters for PALMapper were set as follows: maximum number of mismatches: 2; maximum number of gaps: 0; minimum aligning length: 15; maximum intron length (splice alignment): 10000; minimum length of a splicing read aligned to either side of the intron boundary: 10. Only the uniquely aligned reads were used for further analysis.
To remove ribosome RNA contamination, the footprint reads were also aligned to a ribosome sequence database using PALMapper with the same parameters except allowing splice alignment. […]

[1] = test system: neuroblastoma cell lines SKNAS, CLBGA, IMR32 and N206; test: Silvestrol IC50 in neuroblastoma cell lines SKNAS, CLBGA, IMR32 and N206; assay type: cell-based
IMR32 = test: Silvestrol in neuroblastoma cell lines in vitro: IMR32; assay type: cell-based; settings: Homo sapiens, IMR-32; IMR32 cells, N_MYC
Experimental: The effect of silvestrol on several neuroblastoma cell lines was evaluated.

PANC-1 = test: Silvestrol sensitivity and KRAS protein levels in PANC-1; assay type: cell-based
Source text: KRAS has a long T1/2 compared to MYC, and therefore the effect is less pronounced. The in vitro activity of an S6 kinase inhibitor, rapamycin, silvestrol and combinations on PNAC1 and MiaPaca2 cells are shown in FIGS. 24B and 24C, respectively.

COC(=O)[C@H]1[C@@H](O)[C@@]2(O)c3c(OC)cc(O[C@@H]4O[C@@H]([C@H](O)CO)CO[C@H]4OC)cc3O[C@@]2(c2ccc(OC)cc2)[C@@H]1c1ccccc1 [silvestrol]
effect on cap-dependent translation (ribosome footprints) (KOPTK1 cells; 25 nM, 45 minutes): immediate and broad inhibitory effect | log2(Translational Efficiency) (KOPTK1 cells; gene ADAM10 (ENSG00000137845)): −0.2089 | log2(Translational Efficiency) (KOPTK1 cells; gene AFTPH (ENSG00000119844)): −0.5917 | log2(Translational Efficiency) (KOPTK1 cells; gene ATP2B4 (ENSG00000058668)): −0.3028 | log2(Translational Efficiency) (KOPTK1 cells; gene BCL11B (ENSG00000127152)): −0.5178 | log2(Translational Efficiency) (KOPTK1 cells; gene C16orf72 (ENSG00000182831)): −0.2553 | log2(Translational Efficiency) (KOPTK1 cells; gene CAMK2D (ENSG00000145349)): −0.4082 | log2(Translational Efficiency) (KOPTK1 cells; gene CCRN4L (ENSG00000151014)): −0.4802 | log2(Translational Efficiency) (KOPTK1 cells; gene CDIPT (ENSG00000103502)): −0.324 | log2(Translational Efficiency) (KOPTK1 cells; gene CERS6 (ENSG00000172292)): −0.2051 | log2(Translational Efficiency) (KOPTK1 cells; gene CHIC2 (ENSG00000109220)): −0.5212 | log2(Translational Efficiency) (KOPTK1 cells; gene CHST11 (ENSG00000171310)): −0.146 | log2(Translational Efficiency) (KOPTK1 cells; gene CPSF4 (ENSG00000160917)): −0.3194 | log2(Translational Efficiency) (KOPTK1 cells; gene DIAPH1 (ENSG00000131504)): −0.2136 | log2(Translational Efficiency) (KOPTK1 cells; gene DOM3Z (ENSG00000204348)): −0.5959 | log2(Translational Efficiency) (KOPTK1 cells; gene DYNLL2 (ENSG00000121083)): −0.1378 | log2(Translational Efficiency) (KOPTK1 cells; gene EP300 (ENSG00000100393)): −0.4645 | log2(Translational Efficiency) (KOPTK1 cells; gene FAM49B (ENSG00000153310)): −0.1392 | log2(Translational Efficiency) (KOPTK1 cells; gene FKRP (ENSG00000181027)): −0.996 | log2(Translational Efficiency) (KOPTK1 cells; gene FOXJ2 (ENSG00000065970)): −0.4735 | log2(Translational Efficiency) (KOPTK1 cells; gene GABARAPL1 (ENSG00000139112)): −1.234 | log2(Translational Efficiency) (KOPTK1 cells; gene GIPC1 (ENSG00000123159)): −0.4783 | log2(Translational Efficiency) (KOPTK1 cells; gene GNB1 (ENSG00000078369)): −0.1338 | log2(Translational Efficiency) (KOPTK1 cells; gene GYG2 (ENSG00000056998)): −0.9297 | log2(Translational Efficiency) (KOPTK1 cells; gene HDGFRP3 (ENSG00000166503)): −0.6088 | log2(Translational Efficiency) (KOPTK1 cells; gene HIPK1 (ENSG00000163349)): −0.2827 | log2(Translational Efficiency) (KOPTK1 cells; gene ITPR1 (ENSG00000150995)): −0.6283 | log2(Translational Efficiency) (KOPTK1 cells; gene MAP3K2 (ENSG00000169967)): −0.377 | log2(Translational Efficiency) (KOPTK1 cells; gene MAPKAPK2 (ENSG00000162889)): −0.3527 | log2(Translational Efficiency) (KOPTK1 cells; gene MBNL1 (ENSG00000152601)): −0.1522 | log2(Translational Efficiency) (KOPTK1 cells; gene MED13 (ENSG00000108510)): −0.2939 | log2(Translational Efficiency) (KOPTK1 cells; gene MED13L (ENSG00000123066)): −0.4159 | log2(Translational Efficiency) (KOPTK1 cells; gene MGRN1 (ENSG00000102858)): −0.3096 | log2(Translational Efficiency) (KOPTK1 cells; gene MTA2 (ENSG00000149480)): −0.2235 | log2(Translational Efficiency) (KOPTK1 cells; gene MYO9A (ENSG00000066933)): −0.4735 | log2(Translational Efficiency) (KOPTK1 cells; gene NANS (ENSG00000095380)): −0.3218 | log2(Translational Efficiency) (KOPTK1 cells; gene NDFIP1 (ENSG00000131507)): −0.2429 | log2(Translational Efficiency) (KOPTK1 cells; gene PABPC4 (ENSG00000090621)): −0.2428 | log2(Translational Efficiency) (KOPTK1 cells; gene PAFAH1B1 (ENSG00000007168)): −0.3832 | log2(Translational Efficiency) (KOPTK1 cells; gene PAFAH1B2 (ENSG00000168092)): −0.3883 | log2(Translational Efficiency) (KOPTK1 cells; gene PAIP2 (ENSG00000120727)): −0.1573 | log2(Translational Efficiency) (KOPTK1 cells; gene PAK4 (ENSG00000130669)): −0.628 | log2(Translational Efficiency) (KOPTK1 cells; gene PANX1 (ENSG00000110218)): −0.3987 | log2(Translational Efficiency) (KOPTK1 cells; gene PATZ1 (ENSG00000100105)): −0.3245 | log2(Translational Efficiency) (KOPTK1 cells; gene PPP6R1 (ENSG00000105063)): −0.1576 | log2(Translational Efficiency) (KOPTK1 cells; gene PTGER4 (ENSG00000171522)): −0.2748 | log2(Translational Efficiency) (KOPTK1 cells; gene PTP4A2 (ENSG00000184007)): −0.1429 | log2(Translational Efficiency) (KOPTK1 cells; gene QKI (ENSG00000112531)): −0.2913 | log2(Translational Efficiency) (KOPTK1 cells; gene RFXANK (ENSG00000064490)): −0.3247 | log2(Translational Efficiency) (KOPTK1 cells; gene RNF4 (ENSG00000063978)): −0.3442 | log2(Translational Efficiency) (KOPTK1 cells; gene RNF19A (ENSG00000034677)): −0.4839 | log2(Translational Efficiency) (KOPTK1 cells; gene RPS12 (ENSG00000112306)): −0.1732 | log2(Translational Efficiency) (KOPTK1 cells; gene SHISA2 (ENSG00000180730)): −0.6086 | log2(Translational Efficiency) (KOPTK1 cells; gene SLC25A22 (ENSG00000177542)): −0.3386 | log2(Translational Efficiency) (KOPTK1 cells; gene SLC35B3 (ENSG00000124786)): −0.9178 | log2(Translational Efficiency) (KOPTK1 cells; gene SMEK1 (ENSG00000100796)): −0.1765 | log2(Translational Efficiency) (KOPTK1 cells; gene SRRM2 (ENSG00000167978)): −0.08166 | log2(Translational Efficiency) (KOPTK1 cells; gene STAG2 (ENSG00000101972)): −0.1873 | log2(Translational Efficiency) (KOPTK1 cells; gene TAF6 (ENSG00000106290)): −0.2102 | log2(Translational Efficiency) (KOPTK1 cells; gene TBC1D24 (ENSG00000162065)): −1.231 | log2(Translational Efficiency) (KOPTK1 cells; gene TGFB1 (ENSG00000105329)): −0.2213 | log2(Translational Efficiency) (KOPTK1 cells; gene TLE3 (ENSG00000140332)): −0.2278 | log2(Translational Efficiency) (KOPTK1 cells; gene TMEM248 (ENSG00000106609)): −0.2362 | log2(Translational Efficiency) (KOPTK1 cells; gene TNRC6B (ENSG00000100354)): −0.4442 | log2(Translational Efficiency) (KOPTK1 cells; gene TRIM2 (ENSG00000109654)): −2.147 | log2(Translational Efficiency) (KOPTK1 cells; gene TUBGCP4 (ENSG00000137822)): −0.5346 | log2(Translational Efficiency) (KOPTK1 cells; gene UBE2G1 (ENSG00000132388)): −0.3367 | log2(Translational Efficiency) (KOPTK1 cells; gene USP20 (ENSG00000136878)): −0.2066 | log2(Translational Efficiency) (KOPTK1 cells; gene ZNF48 (ENSG00000180035)): −0.5828 | log2(Translational Efficiency) (KOPTK1 cells; gene ZNF800 (ENSG00000048405)): −0.2711 | pIC50 [1]: 7.70 to 8.70 | pIC50 (IMR32): 8.54 | KRAS expression (PANC-1; PANC1 cells, 50 nM): loss of KRAS expression | KRAS expression (PANC-1; PANC-1, 20 nM): loss of KRAS expression
